This note sets out measurements from PMC11629774 (Science (New York, N.Y.), 2024).

This assay has as its system primary human tonsillar lymphocytes. The assay is described as follows: Toxicity in primary human tonsillar lymphocytes at 72 hours. Particulars: Lymphocyte, read-out: EC50 toxicity. The format is cell-based.

Each structure is given as a SMILES string.

A word on the EC50: it is the concentration giving half of the maximal effect. `CC(C)(C)c1cnc(CSc2cnc(NC(=O)C3CCN(CC(=O)NCCOCCOCCOCCNc4cccc5c4C(=O)N(C4CCC(=O)NC4=O)C5=O)CC3)s2)o1` (centres unmarked) [THAL-SNS-032]: the half-maximal effective concentration (EC50) is roughly 15 nM.
In the case of `CC(C)(C)c1cnc(CSc2cnc(NC(=O)C3CCNCC3)s2)o1` [SNS-032], the half-maximal effective concentration (EC50) was roughly 150 nM.
